According to US20220017572A1, “GEMINOID LIPOPEPTIDE COMPOUNDS AND THEIR USES” (Erasmus University Medical Center Rotterdam, priority 2016, published 2022):
Residues, ends and D or L forms follow the SMILES beside them.

Legend:
[1] = system: DENV-2/NGC; assay: Dengue replication (plaque) assay in VERO cells; format: cell-based, Dengue virus
Procedure: 1×10^6 Vero E6 cells were plated per well into a 6-wells plate and incubated overnight at 37° C. Next day, the DENV-2/NGC virus stock was diluted to 10^4 TICD50/ml, 10^3 TICD50/ml, 10^2 TICD50/ml and 1 ml of the respective virus dilutions was added to each well. Wells contained approximately 80% confluent monolayers of Vero cells. After an incubation period of 1 hour at 37° C., cells were washed twice with medium (DMEM) and medium containing 2% methyl cellulose was added to the wells. To this medium C16-KAK-C16 10 uM was added (W) in DMSO, or an equivalent amount of DMSO (0.05%) was added (W/O). Plate was incubated at 37° C. for two days. Methyl cellulose overlays were removed and cells were fixed with absolute ethanol. Cells were subsequently incubated with specific DENY monoclonal antibody for 1 hour at 37° C., followed by incubation with HRPO-labeled rabbit-anti mouse conjugate. Positive plaques were counted after incubation with AEC substrate chromogen.
The experiment was performed as described in the legend of FIG. 8 at a viral dose of 10^3 TICD50/ml in all plates.
C16-KAK-C16 was subsequently tested in a standard Dengue replication (plaque) assay in VERO cells (FIG. 8). […] In a separate experiment this was confirmed with a constant intermediate viral load of and different concentrations of C16-KAK-C16 (FIG. 9)

[2] = target: T1, dengue 2 protease (Dengue virus type 2, UniProt P14340); assay: Dengue 2 protease inhibition, hydrolysis of Z-RR-MCA; format: biochemical, dengue 2 virus; parameters: unit not given here; settings: 30 μM of inhibitor; 10 μM Z-RR-MCA, pH 9.0, 37° C.; initial activity in UAF/min
T1 construct: The active site of the dengue protease is in the N-terminal part of NS3
T1 sequence (P14340 1476-1653): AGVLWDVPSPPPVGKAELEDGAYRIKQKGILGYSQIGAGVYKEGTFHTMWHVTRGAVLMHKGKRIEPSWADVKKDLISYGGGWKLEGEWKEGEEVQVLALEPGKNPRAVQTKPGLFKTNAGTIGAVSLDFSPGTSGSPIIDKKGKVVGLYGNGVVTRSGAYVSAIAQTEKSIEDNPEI

[3] = target: T2, Dengue NS3-NS2B peptidase (Dengue virus type 2, UniProt P14340); assay: Dengue NS3-NS2B peptidase hydrolysis of Abz-AKRRSQ-EDDnp; format: biochemical; settings: 50 mM Tris-HCl pH 9.0, FIG. 5
T2 construct: The active site of the dengue protease is in the N-terminal part of NS3
T2 sequence (P14340 1476-1653): as above
Procedure: FIG. 5A, FIG. 5B and FIG. 5C show Dengue NS3-NS2B peptidase hydrolysis of Abz-AKRRSQ-EDDnp (SEQ ID NO:1) in 50 mM Tris-HCl pH 9.0. FIG. 5A Inhibitors: (◯) C16-KAAK-C16 (SEQ ID NO:42), (▪)C16-KAK-C16, (▴)C16-KGGK-C16(SEQ ID NO:41). FIG. 5B Substrates: (◯) Abz AKRRSQ-EDDnp (SEQ ID NO:1) and (●) Suc AAPF-MCA with different concentrations of C16-KGGK-C16 (SEQ ID NO:41). FIG. 5C Followed in time at different C16-KGGK-C16 (SEQ ID NO:41) concentrations.
FIG. 6A and FIG. 6B show Dengue NS3-NS2B peptidase hydrolysis of Abz AKRRSQ-EDDnp (SEQ ID NO:1) in the presence of C16-KK-C16 (KR), C16-KAK-C16 (KAK), C16-KAAK-C16 (KAAK; (SEQ ID NO:42)), C16-KAAAAK-C16 (KAAAAK; (SEQ ID NO:53)), C16-KGK-C16 (KOK), C16-KGGK-C16 (KOOK; (SEQ ID NO:41)), and C16-KGGGK-C16 (KGGGK; (SEQ ID NO:40)). “◯” means enzyme activity without inhibitor. FIG. 6A E+K means that the inhibitor+enzyme were pre-incubated for 0, 15 and 30 min and then the substrate was added. FIG. 6B K means that the inhibitor was pre-incubated for 0, 15 and 30 min and then the enzyme and substrate were added.
The best substrate for dengue protease is Abz-AKRR↓SQ-EDDnp (SEQ ID NO:1) [Gouvea et al., 2007]. […] Geminoids with either G or A are inhibitors of Dengue protease, but which is the better inhibitor does depend on the nature of the substrates (compare FIG. 5a and Table 1). […]

| Structure (SMILES) | inhibition of plaque formation ([1]; 10 uM, Vero E6 cells, DENV-2/NGC 10^2-10^4 TICD50/ml, two days, depending on the viral load) | virus replication (in words) ([1]; VERO cells, DENV-2/NGC) | Activity with inhibitors [2] | inhibition of Dengue protease with substrate Abz-AKRRSQ-EDDnp (in words) [3] |
| --- | --- | --- | --- | --- |
| CCCCCCCCCCCCCCCCNC(=O)[C@H](CCCCN)NC(=O)[C@H](C)NC(=O)[C@H](CCCCN)NC(=O)CCCCCCCCCCCCCCC [C16-KAK-C16] | up to 90% | significant reduction of virus replication | 0 |  |
| CCCCCCCCCCCCCCCCNC(=O)[C@H](CCCCN)NC(=O)CNC(=O)CNC(=O)[C@H](CCCCN)NC(=O)CCCCCCCCCCCCCCC [C16-KGGK-C16, C15H31CO-KGGK-NH—C16H33] (HELM PEPTIDE1{[CCCCCCCCCCCCCCCC(=O)[*:2]].K.G.G.K.[CCCCCCCCCCCCCCCCN[*:1]]}$$$$V2.0) |  |  |  | does not depend on the choice of substrate |
